Structures can show the parent of a compound that is named as a salt.
Legend:
[1] = target: T1, ROS1 (Homo sapiens, UniProt P08922); test: ROS1 kinase inhibitory activity evaluation (mobility shift, EZ Reader II); format: biochemical; conditions: ROS1 25 pg/μL, FL-Peptide 22 substrate, three separate measurements
T1 construct: purchased Carna Biosciences 08-163
Method: Next, a substrate reaction solution was prepared. […] Then, the reaction stop solution was added thereto at a concentration of 40 μL/well. Substrate phosphorylation intensity was measured using EZ Reader II (Caliper Life Sciences).

[2] = target: T1, ROS1; test: ROS1 autophosphorylation inhibitory activity evaluation (ADP-Glo); format: biochemical; conditions: 200 nM inactive ROS1, ATP 1 mM, 25° C. 1.5 hours, ADP generated, four separate measurements
Summary of the method: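 IC50 was derived by curve fitting of ADP output measured with ADP-Glo reagents. The output reflects ROS1 self-phosphorylation over 1.5 hours at 25° C. Buffer was HEPES pH 7.5 with MgCl2, Brij-58 and DTT, and ATP was 1 mM final.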

[3] = test system: HCC78 cells having ROS1 fusion gene; test: HCC78 cell growth assay (CellTiter-Glo); format: cell-based; conditions: Homo sapiens, HCC78, 72 h, 72 hours culture, 2% FBS medium, luminescence, four separate measurements; read-out: growth inhibitory effect on HCC78 cells having ROS1 fusion gene IC50

T1 sequence (P08922 28-2347): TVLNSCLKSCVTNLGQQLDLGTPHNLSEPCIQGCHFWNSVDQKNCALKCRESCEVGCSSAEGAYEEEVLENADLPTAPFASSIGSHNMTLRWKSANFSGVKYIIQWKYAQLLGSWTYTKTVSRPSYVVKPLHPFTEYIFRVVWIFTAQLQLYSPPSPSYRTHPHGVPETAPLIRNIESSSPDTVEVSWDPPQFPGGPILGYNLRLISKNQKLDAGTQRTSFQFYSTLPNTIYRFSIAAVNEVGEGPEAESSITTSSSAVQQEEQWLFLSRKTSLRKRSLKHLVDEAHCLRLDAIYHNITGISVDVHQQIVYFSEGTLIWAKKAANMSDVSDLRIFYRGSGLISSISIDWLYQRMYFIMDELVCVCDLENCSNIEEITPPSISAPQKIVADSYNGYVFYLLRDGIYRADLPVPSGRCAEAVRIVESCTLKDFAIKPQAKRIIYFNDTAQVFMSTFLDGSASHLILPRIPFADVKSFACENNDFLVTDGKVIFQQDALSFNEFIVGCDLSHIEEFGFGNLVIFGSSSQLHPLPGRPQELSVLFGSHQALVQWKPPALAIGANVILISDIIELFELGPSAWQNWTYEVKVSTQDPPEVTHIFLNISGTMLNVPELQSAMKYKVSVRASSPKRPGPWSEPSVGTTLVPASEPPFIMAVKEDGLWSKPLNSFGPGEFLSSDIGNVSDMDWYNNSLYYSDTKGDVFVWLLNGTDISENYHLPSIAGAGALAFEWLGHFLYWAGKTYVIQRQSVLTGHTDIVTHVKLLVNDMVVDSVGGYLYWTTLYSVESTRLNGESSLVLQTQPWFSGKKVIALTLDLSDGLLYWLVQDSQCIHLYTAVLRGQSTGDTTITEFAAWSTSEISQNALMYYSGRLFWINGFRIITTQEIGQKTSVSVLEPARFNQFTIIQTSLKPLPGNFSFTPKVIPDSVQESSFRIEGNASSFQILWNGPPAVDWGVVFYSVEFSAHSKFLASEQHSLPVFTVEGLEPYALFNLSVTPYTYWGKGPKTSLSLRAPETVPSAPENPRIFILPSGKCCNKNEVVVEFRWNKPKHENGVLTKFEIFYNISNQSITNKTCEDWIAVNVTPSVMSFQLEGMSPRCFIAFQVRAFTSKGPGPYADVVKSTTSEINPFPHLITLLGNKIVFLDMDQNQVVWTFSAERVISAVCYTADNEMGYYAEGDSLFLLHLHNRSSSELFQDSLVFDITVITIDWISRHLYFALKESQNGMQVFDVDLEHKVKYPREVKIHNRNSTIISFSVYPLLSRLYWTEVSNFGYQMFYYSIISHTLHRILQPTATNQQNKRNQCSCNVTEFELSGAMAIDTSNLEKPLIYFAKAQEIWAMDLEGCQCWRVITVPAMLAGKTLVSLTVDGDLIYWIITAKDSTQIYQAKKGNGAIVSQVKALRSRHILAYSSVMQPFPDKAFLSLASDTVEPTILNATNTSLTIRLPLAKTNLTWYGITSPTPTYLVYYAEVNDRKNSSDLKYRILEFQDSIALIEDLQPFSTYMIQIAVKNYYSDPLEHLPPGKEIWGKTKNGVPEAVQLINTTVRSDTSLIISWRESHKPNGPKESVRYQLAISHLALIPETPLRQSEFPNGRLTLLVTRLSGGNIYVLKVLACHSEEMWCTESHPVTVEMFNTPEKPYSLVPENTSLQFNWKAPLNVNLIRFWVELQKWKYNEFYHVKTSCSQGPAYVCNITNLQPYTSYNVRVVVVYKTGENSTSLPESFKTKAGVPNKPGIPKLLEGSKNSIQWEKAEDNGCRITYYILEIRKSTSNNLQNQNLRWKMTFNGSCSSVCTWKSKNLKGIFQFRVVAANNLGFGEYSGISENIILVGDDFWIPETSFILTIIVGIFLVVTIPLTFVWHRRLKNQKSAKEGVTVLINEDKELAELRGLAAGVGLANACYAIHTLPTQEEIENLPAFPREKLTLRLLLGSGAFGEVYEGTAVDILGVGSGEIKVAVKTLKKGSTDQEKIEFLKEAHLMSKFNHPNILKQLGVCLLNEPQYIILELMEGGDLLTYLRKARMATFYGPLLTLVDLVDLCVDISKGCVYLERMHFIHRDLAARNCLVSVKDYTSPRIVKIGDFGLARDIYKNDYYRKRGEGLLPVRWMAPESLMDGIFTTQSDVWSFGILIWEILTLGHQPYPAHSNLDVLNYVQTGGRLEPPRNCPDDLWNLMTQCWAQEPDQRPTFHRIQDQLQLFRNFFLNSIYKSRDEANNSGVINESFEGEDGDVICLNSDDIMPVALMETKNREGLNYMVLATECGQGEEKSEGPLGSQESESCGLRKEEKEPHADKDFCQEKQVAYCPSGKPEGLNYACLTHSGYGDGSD

SMILES	IC50 [1] [nM]	IC50 [2] [nM]	IC50 [3] [nM]
CN(Cc1cncc(Cl)c1)c1ccc2ncc(-c3ccc(N4CC(C)(N)CC4=O)cc3)n2n1 (stereo not drawn) [Example 123, 4-Amino-1-[4-[6-[(5-chloro-3-pyridyl)methyl-methylamino]imidazo[1,2-b]pyridazin-3-yl]phenyl]-4-methylpyrrolidin-2-one]	10 to 60	100 to 150	20 to 100
C[C@@H](Nc1ccc2ncc(-c3ccc(N4C[C@@H](N)CC4=O)cc3)n2n1)c1ccccc1 [Example 88, (4S)-4-Amino-1-[4-[6-[[(1R)-1-phenylethyl]amino]imidazo[1,2-b]pyridazin-3-yl]phenyl]pyrrolidin-2-one]	< 1	< 20	< 20
Cc1cc(-c2cnc3ccc(OC(C)c4cncc(F)c4)nn23)ccc1N1C[C@@H](N)CC1=O (stereo partly drawn) [Example 111]	1 to 10	20 to 100	20 to 100
CNC(C)COc1ccc(-c2cnc3ccc(N[C@H](C)c4cccc(F)c4)nn23)cc1 (stereo partly drawn) [Example 38, N-[(1R)-1-(3-Fluorophenyl)ethyl]-3-[4-[2-(methylamino)propoxy]phenyl]imidazo[1,2-b]pyridazin-6-amine]	< 1	< 20	< 20
CC[C@H](N)COc1ccc(-c2cnc3ccc(N[C@H](C)c4cccc(F)c4)nn23)cc1 [Example 49, 3-[4-[(2S)-2-Aminobutoxy]phenyl]-N-[(1R)-1-(3-fluorophenyl)ethyl]imidazo[1,2-b]pyridazin-6-amine]	< 1	< 20	< 20
C[C@@H](Nc1ccc2ncc(-c3ccc(O[C@@H]4CCC[C@@H]4N)cc3)n2n1)c1cccc(F)c1 [Example 36, 3-[4-[(1R,2S)-2-Aminocyclopentoxy]phenyl]-N-[(1R)-1-(3-fluorophenyl)ethyl]imidazo[1,2-b]pyridazin-6-amine]	< 1	< 20	100 to 600
CN1CCC[C@H]1COc1cccc(-c2cnc3ccc(NCc4ccccc4)nn23)c1 [Example 8, N-Benzyl-3-[3-[[(2S)-1-methylpyrrolidin-2-yl]methoxy]phenyl]imidazo[1,2-b]pyridazin-6-amine]	1 to 10	20 to 100	20 to 100
CN(Cc1cccc(F)c1)c1ccc2ncc(-c3ccc(OC[C@@H]4CCCN4)cc3)n2n1 [Example 10, N-[(3-Fluorophenyl)methyl]-N-methyl-3-[4-[[(2S)-pyrrolidin-2-yl]methoxy]phenyl]imidazo[1,2-b]pyridazin-6-amine]	1 to 10	20 to 100	100 to 600
CN(Cc1cc(F)ccc1F)c1ccc2ncc(-c3ccc(N4C[C@@H](N)CC4=O)nc3)n2n1 [Example 129, (4S)-4-Amino-1-[5-[6-[(2,5-difluorophenyl)methyl-methylamino]imidazo[1,2-b]pyridazin-3-yl]-2-pyridyl]pyrrolidin-2-one]	1 to 10	20 to 100	20 to 100
C[C@@H](Nc1ccc2ncc(-c3ccc(OC[C@@H]4CCNC4)cc3)n2n1)c1cccc(F)c1 [Example 23, N-[(1R)-1-(3-Fluorophenyl)ethyl]-3-[4-[[(3R)-pyrrolidin-3-yl]methoxy]phenyl]imidazo[1,2-b]pyridazin-6-amine]	< 1	< 20	100 to 600
CC[C@@H](N)COc1ccc(-c2cnc3ccc(N[C@H](C)c4cccc(F)c4)nn23)cc1 [Example 52, 3-[4-[(2R)-2-Aminobutoxy]phenyl]-N-[(1R)-1-(3-fluorophenyl)ethyl]imidazo[1,2-b]pyridazin-6-amine]	< 1	< 20	20 to 100
C[C@@H](Oc1ccc2ncc(-c3ccc(OC[C@@H]4CCN4)cc3)n2n1)c1cccc(F)c1 [Example 18, 3-[4-[[(2S)-Azetidin-2-yl]methoxy]phenyl]-6-[(1R)-1-(3-fluorophenyl)ethoxy]imidazo[1,2-b]pyridazine hydrochloride]	< 1	20 to 100	20 to 100

— patent US9751887B2, “Imidazo[1,2-b]pyridazine derivatives as kinase inhibitors” (Daiichi Sankyo Company, Limited, priority 2012, dated 2017)
